Assay results as given in patent US12275733B2, “Substituted pyrido[3,4-b]indoles for the treatment of cartilage disorders” (Sanofi, priority 2016, dated 2025).

Assays:
ATDC5 cells = test: Chondrogenesis activity assay in ATDC5 cells (collagen type II induction, immunofluorescence); assay type: cell-based, mouse; details: Mus musculus; for EC50: collagen type II induction in ATDC5 cells, concentration reaching 50% of maximum induction; for Emax: maximum percent induction of collagen type II relative to internal reference compound at 10 μM, ATDC5 cells
Method in brief: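 Collagen type II was stained in fixed, permeabilized cells with an Alexa Fluor 488 secondary and measured by high-content fluorescence imaging. ATDC5 cells had 4 days at 37 °C in insulin-supplemented differentiation medium with compound, typically 40 nM–10 μM, 0.1% DMSO. DMSO wells and a 10 μM internal reference compound were used for normalization.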

[1] = tested on: primary human chondrocyte pellet cultures; test: Chondrogenesis activity assay in primary human chondrocyte pellet cultures (proteoglycan (aggrecan) induction, Blyscan assay); assay type: cell-based; details: for EC50: 336 h, proteoglycan (aggrecan) induction, primary human chondrocyte pellets, 2 weeks culture; for Emax: Homo sapiens, Chondrocyte, maximum percent proteoglycan (aggrecan) induction relative to the internal reference compound at 10 μM
Experimental: B) Chondrogenesis Activity Assay in Primary Human Chondrocyte Pellet Cultures
In this assay human articular chondrocytes are harvested by enzymatic digestion from articular cartilage and passaged several times to dedifferentiate the chondrocytes and to propagate the cells. Cells are cultured as cell pellets in the presence of the compounds of the invention over 2 weeks, and the chondrogenic differentiation is quantified by the production of the chondrogenic marker aggrecan (proteoglycan).
In detail, primary chondrocytes were harvested by enzymatic digestion from cartilage of osteoarthritis patients undergoing knee joint replacement surgery, and cultured in vitro. Cells were passaged one or two times and aliquots were cryopreserved. To initiate chondrogenesis experiments, cell aliquots were thawn, cultured in Chondrocyte Growth Medium (CGM, Lonza, #CC-3216) and passaged twice to further propagate and dedifferentiate cells. Pellet cultures were initiated by seeding 2.5×10E5 cells per well into a 96-well deep well plate in 600 μl chondrocyte differentiation medium consisting of Dulbecco's Modified Eagle Medium (DMEM, Invitrogen, #41966), 1×ITS-solution (Insulin/Transferrin/sodium selenite; 100× solution: Invitrogen, #51500056), 5 μg/mL linoleic acid (Sigma, #L1012-1G), 1× nonessential amino acids (100× solution: Invitrogen, #11140); 10 nM Dexamethasone, 2 ng/ml TGF-β1 (transforming growth factor β1) and 10 μg/ml ascorbic acid. Cells were spun to pellets by centrifugation (10 min, 400×g). Test compounds dissolved in DMSO were added to yield increasing compound concentrations, typically from 40 nM to 10 μM, and a final DMSO concentration of 0.1%, and the cell pellets cultured at 37° C., and 5% CO2 for 2 weeks. On each 96-well plate, control wells containing no test compound but the same concentration of DMSO, i.e. untreated cells, were included and used as reference for the determination of the effect of the test compounds on the cells, and wells containing an internal reference compound at a concentration of 10 μM were included and used as positive control and for standardizing the results. Chondrocyte differentiation medium and the compounds were exchanged twice weekly until harvest of the pellets.
For harvest of the pellets, medium was removed and the pellet was homogenized by enzymatic digestion. 100 μl of protease solution containing 0.4 mg/ml papain, 50 mM sodium phosphate, 4 mM EDTA and 0.48 mg/ml L-cysteine was added to the pellet in each well of a 96-well plate, the plate was sealed with a plate sealer foil (SILVERseal, Greiner Bio-One) and incubated for 4 to 6 hours at 65° C. with agitation.
The concentration of proteoglycan (aggrecan) was determined by quantification of the sulfated glycosaminoglycan side chains of aggrecan using the Blyscan assay (Kit from Biocolor). Aliquots of the papain-digest were transferred to 400 μl of Blyscan dye solution and incubated at room temperature for 45 min with agitation (1200 rpm). The mixture was centrifuged at 3760×g for 45 min, the supernatant was discarded, and the stained pellet was redissolved in 400 μl of Blyscan dissociation reagent by rotation until the precipitate completely resolved. Optical density was measured at 656 nm using a Tecan Saphire2 instrument, and the amount of proteoglycan determined against a standard curve with chondroitin-4-sulfate.
Induction of proteoglycan (aggrecan) was calculated for each compound concentration relative to the control (untreated cells, i.e. no test compound added), and an EC50 value (effective concentration 50 (in μM (micromollliter)), i.e. the compound concentration at which the effect of the compound on proteoglycan (aggrecan) induction reaches 50% of the maximum induction) was calculated using a sigmoidal signal fit procedure. […]

| SMILES | EC50 (ATDC5 cells) | Emax (ATDC5 cells) | EC50 [1] | Emax [1] |
| --- | --- | --- | --- | --- |
| Cc1nccc2c1[nH]c1c(-c3cnccc3Cl)cc(Cl)cc12 [Example 97, 6-Chloro-8-(4-chloro-pyridin-3-yl)-1-methyl-9H-pyrido[3,4-b]indole] | > 1.1 µM | < 20% | 5.1 µM | > 200% |
| CCn1c2c(-c3cnn(Cc4cccnc4)c3)cc(Cl)cc2c2ccnc(C)c21 [Example 116, 6-Chloro-9-ethyl-1-methyl-8-(1-pyridin-3-ylmethyl-1H-pyrazol-4-yl)-9H-pyrido[3,4-b]indole] | 0.39 µM | > 80% | 1.3 µM | 100 to 200% |
| COC(=O)c1cc2c([nH]c3c(-c4ccc(Cl)nc4Cl)cc(Cl)cc32)c(C)n1 [Example 117, 6-Chloro-8-(2,6-dichloro-pyridin-3-yl)-1-methyl-9H-pyrido[3,4-b]indole-3-carboxylic acid methyl ester] | > 10 µM | < 20% | 27 µM | < 40% |
| Cc1nccc2c1[nH]c1c(-c3ccc(N4CCN(C)CC4)nc3)cc(Cl)cc12 [Example 118, 6-Chloro-1-methyl-8-[6-(4-methyl-piperazin-1-yl)-pyridin-3-yl]-9H-pyrido[3,4-b]indole] | > 1.1 µM | 20 to 50% | 1.3 µM | 100 to 200% |
| Cc1nccc2c1[nH]c1c(-c3cccnc3OCc3ccccc3)cc(Cl)cc12 [Example 119, 8-(2-Benzyloxy-pyridin-3-yl)-6-chloro-1-methyl-9H-pyrido[3,4-b]indole] | > 3.3 µM | < 20% | 21 µM | 40 to 100% |
| COc1nc(Cl)ccc1-c1cc(Cl)cc2c1[nH]c1c(C)nccc12 [Example 122, 6-Chloro-8-(6-chloro-2-methoxy-pyridin-3-yl)-1-methyl-9H-pyrido[3,4-b]indole] | > 3.3 µM | 20 to 50% | 3.6 µM | 100 to 200% |
| COc1ccc(-c2cc(Cl)cc3c2[nH]c2c(C)nccc23)cc1 [Example 149, 6-Chloro-8-(4-methoxy-phenyl)-1-methyl-9H-pyrido[3,4-b]indole] | 0.33 µM | > 80% | 1.1 µM | 100 to 200% |
| FC(F)(F)Cn1c2cnccc2c2cc(Cl)cc(-c3cnn(-c4c(Cl)cccc4Cl)c3)c21 [Example 167, 6-Chloro-8-[1-(2,6-dichloro-phenyl)-1H-pyrazol-4-yl]-9-(2,2,2-trifluoro-ethyl)-9H-pyrido[3,4-b]indole] | > 10 µM | 20 to 50% | 13 µM | < 40% |
| Cc1ncc(-c2cc(Cl)cc3c4ccncc4n(CC(F)(F)F)c23)s1 [Example 171, 6-Chloro-8-(2-methyl-thiazol-5-yl)-9-(2,2,2-trifluoro-ethyl)-9H-pyrido[3,4-b]indole] | 1.9 µM | > 80% | 4 µM | > 200% |
| Cc1nccc2c1[nH]c1c(-c3ccc4c(c3)CCCO4)cc(Cl)cc12 [Example 184, 6-Chloro-8-chroman-6-yl-1-methyl-9H-pyrido[3,4-b]indole] | 3 µM | 50 to 80% | 1.9 µM | 40 to 100% |
| Cc1nccc2c1[nH]c1c(-c3ccc(OCCn4ccnc4)cc3)cc(Cl)cc12 [Example 194, 6-Chloro-8-[4-(2-imidazol-1-yl-ethoxy)-phenyl]-1-methyl-9H-pyrido[3,4-b]indole] | 0.14 µM | > 80% | 0.83 µM | 100 to 200% |
| Cc1nccc2c1[nH]c1c(-c3ccc4c(c3)OC(C)(C)C4)cc(Cl)cc12 [Example 195, 6-Chloro-8-(2,2-dimethyl-2,3-dihydro-benzofuran-6-yl)-1-methyl-9H-pyrido[3,4-b]indole] | > 10 µM | < 20% | 14 µM | < 40% |
| Cc1nccc2c1[nH]c1c(-c3c[nH]nc3Cc3ccccc3)cc(Cl)cc12 [Example 199, 8-(3-Benzyl-1H-pyrazol-4-yl)-6-chloro-1-methyl-9H-pyrido[3,4-b]indole] | > 10 µM | < 20% | 22 µM | < 40% |
| COCc1cc(-c2cc(Cl)cc3c2[nH]c2c(C)nccc23)ccc1OC [Example 200, 6-Chloro-8-(4-methoxy-3-methoxymethyl-phenyl)-1-methyl-9H-pyrido[3,4-b]indole] | > 10 µM | 20 to 50% | 4.4 µM | 100 to 200% |
| COc1ccc(-c2cc(Cl)cc3c2[nH]c2c(C)nccc23)cc1Cl [Example 206, 6-Chloro-8-(3-chloro-4-methoxy-phenyl)-1-methyl-9H-pyrido[3,4-b]indole] | > 10 µM | 20 to 50% | 19 µM | < 40% |
| CCn1c2c(-c3cnn(C)c3)cc(Br)cc2c2ccnc(C)c21 [Example 209, 6-Bromo-9-ethyl-1-methyl-8-(1-methyl-1H-pyrazol-4-yl)-9H-pyrido[3,4-b]indole] | 0.28 µM | > 80% | 2.6 µM | > 200% |
| CCc1cc2c([nH]c3c(-c4ccc(OCCn5cccn5)cc4)cc(Br)cc32)c(C)n1 [Example 212, 6-Bromo-3-ethyl-1-methyl-8-[4-(2-pyrazol-1-yl-ethoxy)-phenyl]-9H-pyrido[3,4-b]indole] | > 3.3 µM | < 20% | 8.9 µM | < 40% |
| Cc1nccc2c1[nH]c1c(-c3ccnc(N4CCNCC4)c3)cc(Cl)cc12 [Example 213, 6-Chloro-1-methyl-8-(2-piperazin-1-yl-pyridin-4-yl)-9H-pyrido[3,4-b]indole] | > 1.1 µM | < 20% | 1.2 µM | 100 to 200% |
| Cc1nccc2c1[nH]c1c(-c3ccnc(N4CCN(C)CC4)c3)cc(Cl)cc12 [Example 214, 6-Chloro-1-methyl-8-[2-(4-methyl-piperazin-1-yl)-pyridin-4-yl]-9H-pyrido[3,4-b]indole] | > 3.3 µM | < 20% | 1.3 µM | 100 to 200% |
| CCc1cc2c3cc(Br)cc(-c4cnn(C)c4)c3n(CC)c2c(C)n1 [Example 216, 6-Bromo-3,9-diethyl-1-methyl-8-(1-methyl-1H-pyrazol-4-yl)-9H-pyrido[3,4-b]indole] | > 10 µM | < 20% | 0.99 µM | > 200% |
| COc1ccc(-c2cc(Br)cc3c2[nH]c2c(C)nc(C)cc23)cc1 [Example 217, 6-Bromo-8-(4-methoxy-phenyl)-1,3-dimethyl-9H-pyrido[3,4-b]indole] | > 3.3 µM | 20 to 50% | 4.9 µM | > 200% |
| COc1ccc(-c2cc(Cl)cc3c2[nH]c2c(C)nccc23)nc1N [Example 218, 6-(6-Chloro-1-methyl-9H-pyrido[3,4-b]indol-8-yl)-3-methoxy-pyridin-2-ylamine] | > 1.1 µM | < 20% | 40 µM | < 40% |
| COc1cc(-c2cc(Cl)cc3c2[nH]c2c(C)nccc23)ccc1OCc1cccc(F)n1 [Example 223, 6-Chloro-8-[4-(6-fluoro-pyridin-2-ylmethoxy)-3-methoxy-phenyl]-1-methyl-9H-pyrido[3,4-b]indole] | > 3.3 µM | 20 to 50% | 27 µM | < 40% |
